Patent US20070078085A1, “Methods and compositions for the utilization and targeting of osteomimicry” (priority 2004, published 2007)

What was measured:
BSP mRNA = assay: Semi-quantitative RT-PCR of endogenous BSP mRNA; format: cell-based, human; conditions: LNCaP and C4-2B cells (data not shown)
Procedure: Reverse Transcription-Polymerase Chain Reaction (RT-PCR) Analysis. Total RNA was isolated from confluent monolayers of cells using RNAZol B (Teltest Inc., Friendswood, Tex.). Five μg of total RNA was used as template and 0.15 μg of random hexanucleotide primers were added for reverse transcription and amplification in a reaction volume of 20 μl, according to the manufacturer's instruction (Invitrogen, Carlsbad, Calif.). After RT reaction, 3-5 μl of the 1st-strand cDNA was used for PCR with a PTC-100 programmable Thermal Controller (MJ Research Inc.). The oligonucleotide primer sets used for PCR analysis of cDNA are: hOC, 5′-[…]-3′ (forward) and 5′-[…]-3′ (reverse); hBSP, 5′-[…]-3′ (forward) and 5′-[…]-3′ (reverse); and glyceraldehyde phosphate dehydrogenase (GAPDH), 5′-[…]-3′ (forward) and 5′-[…]-3′ (reverse), respectively. The thermal profile for hOC amplification is 30 cycles starting with denaturation 1 min at 94° C., followed by 1 min of annealing at 55° C. and 1 min of extension at 72° C. For hBSP amplification the thermal profile is 35 cycles starting with denaturation 1 min at 94° C., followed by 30 s of annealing at 48° C. and 40 s of extension at 72° C. The program for GAPDH amplification is 25 cycles starting with denaturation 30 s at 94° C., followed by 30 s of annealing at 60° C. and 1 min of extension at 72° C. The RT-PCR products were analyzed by 1.2% agarose gel electrophoresis. Quantity one-4.1.1 Gel Doc gel documentation software (Bio-Rad) or NIH image were used for quantification of hOC and hBSP mRNA expression normalized by GAPDH mRNA expression.

[1] = tested on: CRE-nuclear protein (CREB) complexes; assay: Electrophoretic mobility shift assay (EMSA) with 32P-labeled CRE probe and nuclear extracts of treated cells; format: cell-based, human; conditions: nuclear extracts of C4-2B cells; H-89 10^−6 M
Procedure: Electrophoretic Mobility Shift Assay (EMSA). A LNCaP-lineaged metastatic human prostate cancer cell line, C4-2B, and the human osteosarcoma cell line MG63 were plated in 15-cm diameter tissue culture dishes in T-medium (with 5% serum) until 80% confluence. Cells were then switched to 1-day complete serum-free condition and then treated with or without ARCaP CM (15 μg/ml) or FSK (10^−5 M) for an additional 16 h. Nuclear extracts were prepared from C4-2B and MG63 for EMSA as described by Ausubel et al (37). Briefly, cells were washed with cold PBS twice, harvested and homogenized in hypotonic buffer (10 mM HEPES, pH 7.9, 1.5 mM MgCl2, 10 mM KCl, 0.5 mM DTT and 0.2 mM PMSF). After centrifugation, the nuclear pellets were stirred and incubated for 30 min in high-salt buffer (20 mM HEPES, pH 7.9, 25% glycerol, 1.5 mM MgCl2, 1.2 M KCl, 0.2 mM EDTA, 0.5 mM DTT and 0.2 mM PMSF) on ice. The nuclear pellets were centrifuged, and the nuclear extract supernatants were dialyzed twice against dialysis buffer (20 mM HEPES, pH 7.9, 20% glycerol, 100 mM KCl, 0.2 mM EDTA, 0.5 mM DTT and 0.2 mM PMSF) overnight. The concentration of nuclear proteins was determined by the Bradford method using Coomassie plus protein reagent (Pierce). Synthetic oligonucleotides were purified by PAGE. Appropriate pairs were annealed by heating up to 95° C. for 10 min and naturally cooled down to room temperature. […]

O=S(=O)(NCCNCC=Cc1ccc(Br)cc1)c1cccc2cnccc12 [H-89, N-[2-(p-bromocinnamylamino)ethyl]-5-isoquinolinesulfonamide]
induction of endogenous BSP mRNA expression by ARCaP CM or FSK (BSP mRNA): inhibited | ARCaP CM- and FSK-induced CRE binding to nuclear proteins [1]: abolish
